The target of experiment [1] is T1, STAT5b Phe633Ala, Tyr665Ala (Homo sapiens, UniProt P51692, F633A/Y665A).
T1 sequence (P51692 1-787 F633A/Y665A): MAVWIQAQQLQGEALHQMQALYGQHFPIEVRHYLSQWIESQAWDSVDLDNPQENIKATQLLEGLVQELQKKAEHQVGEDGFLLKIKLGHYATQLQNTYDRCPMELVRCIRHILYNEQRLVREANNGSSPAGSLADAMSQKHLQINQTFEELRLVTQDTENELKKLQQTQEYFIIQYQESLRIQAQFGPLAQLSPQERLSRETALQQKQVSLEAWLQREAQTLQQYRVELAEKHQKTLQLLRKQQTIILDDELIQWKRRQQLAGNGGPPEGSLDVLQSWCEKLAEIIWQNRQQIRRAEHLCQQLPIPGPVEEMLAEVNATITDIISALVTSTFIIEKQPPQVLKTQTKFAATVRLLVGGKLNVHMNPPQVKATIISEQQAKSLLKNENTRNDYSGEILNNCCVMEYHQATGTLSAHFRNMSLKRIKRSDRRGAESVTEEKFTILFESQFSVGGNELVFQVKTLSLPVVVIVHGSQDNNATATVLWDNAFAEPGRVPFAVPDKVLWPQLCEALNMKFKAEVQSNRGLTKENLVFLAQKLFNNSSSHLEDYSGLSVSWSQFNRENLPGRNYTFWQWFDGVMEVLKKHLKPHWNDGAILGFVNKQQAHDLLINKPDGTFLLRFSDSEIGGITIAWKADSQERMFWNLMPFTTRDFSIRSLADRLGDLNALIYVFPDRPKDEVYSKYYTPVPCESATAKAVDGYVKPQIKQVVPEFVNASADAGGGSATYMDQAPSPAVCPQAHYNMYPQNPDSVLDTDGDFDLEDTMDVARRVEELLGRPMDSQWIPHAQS
Briefly: Isothermal titration calorimetry, STAT5b Phe633Ala, Tyr665Ala double mutant. Format: binding. The note with it: ITC, 25 °C, n = 3.

In the next experiment the target is T2, STAT5b Lys600Ala (Homo sapiens, UniProt P51692, K600A).
T2 sequence (P51692 1-787 K600A): T1 sequence (P51692 1-787 F633A/Y665A) with K600A, A633F, A665Y
Briefly: Isothermal titration calorimetry, STAT5b Lys600Ala. Format: binding. The note with it: ITC, 25 °C. (In general: Isothermal titration calorimetry measures the heat released or taken up as one component is titrated into another.)

The results in this text go back to paper PMC5429769, “Rational development of Stafib-2: a selective, nanomolar inhibitor of the transcription factor STAT5b” (Scientific Reports, 2017).

Each structure is given as a SMILES string. Residue numbers refer to the chain shown, from its start.

In the case of `O=C(COc1ccc(C(=O)Nc2ccc(Oc3ccccc3)cc2)cc1)NCc1ccc(OP(=O)(O)O)c(OP(=O)(O)O)c1` [compound 4, 4-((2-(4-((4-phenoxyphenyl)carbamoyl)phenoxy)acetamido)methyl)-1,2-phenylene bis(dihydrogen phosphate)], in experiment [1], the dissociation constant Kd was 3.8 ± 1.7 µM, the ΔH was -5.1 ± 0.5 kcal/mol and the “−TΔS” value is -2.4 ± 0.3 kcal/mol. This compound came in with a Kd on STAT5b Lys600Ala of 23 ± 10 µM.

A word on the Kd: it is the free concentration of one partner at which half of the binding sites on the other are occupied at equilibrium, for simple one-to-one binding.
